From patent US8455469B2, “Use of norgestimate as a selective inhibitor of TRPC3, TRPC6 and TRPC7 ion channels” (Sanofi, priority 2007, dated 2013)

Experiments:
[1] = target: T1, TRPC3 (Homo sapiens, UniProt Q13507); experiment: FLIPR Ca2+ influx measurement, OAG-activated TRPC3 HEK293 cells; assay type: cell-based; conditions: 30 μM OAG
T1 construct: expressed in transfected cells; host or cells: HEK293 (inducible expression)
T1 sequence (Q13507 1-921): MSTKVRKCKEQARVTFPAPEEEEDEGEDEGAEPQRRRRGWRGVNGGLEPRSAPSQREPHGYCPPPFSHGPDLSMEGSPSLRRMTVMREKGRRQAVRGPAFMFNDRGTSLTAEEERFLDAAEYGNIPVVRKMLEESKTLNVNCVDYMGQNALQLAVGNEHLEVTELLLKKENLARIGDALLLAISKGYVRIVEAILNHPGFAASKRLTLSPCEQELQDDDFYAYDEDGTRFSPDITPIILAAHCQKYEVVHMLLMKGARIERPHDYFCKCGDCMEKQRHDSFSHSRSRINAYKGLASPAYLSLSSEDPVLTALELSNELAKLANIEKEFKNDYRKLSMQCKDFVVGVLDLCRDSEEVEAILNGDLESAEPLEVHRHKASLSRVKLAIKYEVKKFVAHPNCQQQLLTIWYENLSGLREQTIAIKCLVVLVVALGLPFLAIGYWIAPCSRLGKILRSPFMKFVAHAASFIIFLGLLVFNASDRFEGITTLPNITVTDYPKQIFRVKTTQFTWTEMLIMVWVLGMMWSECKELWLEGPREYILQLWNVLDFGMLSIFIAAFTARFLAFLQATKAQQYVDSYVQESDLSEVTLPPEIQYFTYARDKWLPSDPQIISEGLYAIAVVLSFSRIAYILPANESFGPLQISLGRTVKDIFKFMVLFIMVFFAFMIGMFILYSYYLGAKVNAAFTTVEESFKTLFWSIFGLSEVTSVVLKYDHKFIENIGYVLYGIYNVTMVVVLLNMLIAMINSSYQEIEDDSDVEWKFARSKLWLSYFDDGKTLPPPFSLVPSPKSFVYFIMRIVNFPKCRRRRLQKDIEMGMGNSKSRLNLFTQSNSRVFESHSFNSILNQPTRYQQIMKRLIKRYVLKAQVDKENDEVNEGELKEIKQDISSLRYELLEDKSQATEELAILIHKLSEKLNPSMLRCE
Excerpt: In general, cells are provided which express a TRPC channel. Such cells can be produced using genetic methods known to a person skilled in the art. After having induced the expression of the TRPC channel, cells are usually plated into e.g. microtiter plates and grown. Usually the cells grow at the bottom of multiwell plates and are fixed. Thereafter, the cells are generally washed and loaded with a dye in a suitable loading buffer, preferably with a fluorescent dye such as fluo4am. After having removed the loading buffer, the cells are incubated with the test compound or modulator, in particular with a biochemical or chemical test compound as described above, e.g. in the form of a chemical compound library. Ca^2+ measurements can be carried out using e.g. a Fluorescence Imaging Plate Reader (FLIPR). To stimulate Ca^2+ influx through the TRPC channel a channel activator such as OAG should generally be applied.
TRPC3 and TRPC6 were directly activated by application of oleoyl-2-acetyl-sn-glycerol (OAG), a membrane permeable diacylglycerol analogue.
(A, C) Time-dependent changes of intracellular Ca^2+ concentration ([Ca^2+]i) of fluo-4-loaded induced TRPC3 HEK293 cells (A) and TRPC6 HEK293 cells (C). […] Measurements were performed in 96er well plates using FLIPR (Molecular Devices, Sunnyvale, Calif., USA) (B, D) Determination of norgestimates IC50 value on TRPC3 (B) and TRPC6 (D). […]

[2] = test system: protease-activated receptor (PAR); experiment: Calcium release from ER in non-induced TRPC5 HEK293 FITR cells (PAR antagonism control); assay type: cell-based; conditions: 30 μM norgestimate, 10 min preincubation
Procedure: When these experiments were performed, no direct physiological stimuli of TRPC4 and TRPC5 were known. Therefore, both channels had to be stimulated indirectly, e.g. by application of trypsin, a protease-activated receptor (PAR) stimulating protease. […] PAR are G protein-coupled and their activation leads to calcium store depletion from endoplasmic reticulum (ER). This so called phosphatidylinositol (PI) response is independent of the channel's presence but consequently leads to activation of store-operated channels like TRPC4 and TRPC5. Basic prerequisite to measure the effect of norgestimate on both channels under these conditions is to exclude PAR antagonism of this potential channel inhibitor. […] Kinetics and quantity of calcium store release in cells treated with 30 μM norgestimate were not changed compared to untreated cells. Therefore, norgestimate is not a PAR antagonist and TRPC4 and TRPC5 activation via PAR stimulation is suitable to measure the channels inhibition by norgestimate.

[3] = test system: native heteromeric TRPC6/7 channels; experiment: Whole-cell patch clamp of AVP-stimulated A7r5 cells; assay type: cell-based, rat; conditions: 10 μM
Procedure: The A7r5 cell line (derived from rat thoracic aorta smooth muscle cells) is a model system to investigate endogenous TRPC channels (Jung et al., 2002; Soboloff et al., 2005). The channels were indirectly stimulated by Arg^8-vasopressin (AVP), a vasoconstricting peptide that activates the endogenous vasopressin V1A receptor in these cells (Thibonnier et al., 1991).
Perfusion of A7r5 cells with 100 nM AVP stimulated non-selective cationic currents that bore the biophysical hallmarks of TRPC channels (FIG. 5). […] When 10 μM norgestimate were applied to AVP-stimulated A7r5 cells, 86.5±6.0% (n=8) of the current measured at resting membrane potential were blocked and this effect was reversible (FIG. 5).
Effect of 10 μM norgestimate (NG) on whole-cell currents evoked by 100 nM AVP on A7r5 cells in standard extracellular solution (200 μM [Ca^2+]o). Whole cell currents recorded at −60 mV (left panels) and the corresponding I-V relationships are shown (right panels). The curves were obtained during voltage ramps from −100 to +80 mV. L-type voltage-gated Ca^2+ channels were blocked by 5 μM nimodipine (ND) during the whole experiment.

C#C[C@]1(OC(C)=O)CC[C@H]2[C@@H]3CCC4=C/C(=N/O)CC[C@@H]4[C@H]3CC[C@@]21CC [norgestimate, D-17β-acetoxy-B-ethyl-17α ethinyl-gon-4-en-3-one oxime]
IC50 ([1]; FLIPR, n=2): 2800 ± 400 nM
TRPC3-mediated Ca2+ influx following application of OAG ([1]; cells preincubated with 30 μM norgestimate): strongly reduced
kinetics and quantity of calcium store release compared to untreated cells [2]: not changed
reversibility of current block in A7r5 cells [3]: reversible
AVP-stimulated current blocked in A7r5 cells ([3]; 100 nM AVP, resting membrane potential (-60 mV), n=8): 86.5±6.0%
